Results taken from patent US20110086759A1, “CHEMICAL COMPOUNDS” (SYNGENTA CROP PROTECTION, INC., priority 2007, published 2011).

Tests used:
Format in all cases: in vivo
[1] = test system: Alopecurus myosuroides (ALOMY); experiment: Pre-emergence biological efficacy, glasshouse pot test; settings: 312 h, pre-emergence, rate 1,000 g/ha, evaluated after 13 days (100=total damage to plant; 0=no damage), read-out: Percentage damage caused to weed species, ALOMY
Method in brief: (§1)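 Scores on a 0–100 damage scale were taken 13 days after spraying. Application rate 1000 or 250 g/ha, one day after sowing, in acetone/water-based aqueous spray containing 0.5% Tween 20.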

[2] = test system: Amaranthus retoflexus (AMARE); experiment: as above; settings: Amaranthus retroflexus, 312 h; pre-emergence, rate 1,000 g/ha, evaluated after 13 days (100=total damage to plant; 0=no damage); read-out: Percentage damage caused to weed species, AMARE
Method in brief: as §1

[3] = test system: Echinochloa crus-galli (ECHCG); experiment: as above; settings: 312 h, pre-emergence, rate 1,000 g/ha, evaluated after 13 days (100=total damage to plant; 0=no damage), read-out: Percentage damage caused to weed species, ECHCG
Method in brief: as §1

[4] = test system: Ipomea hederaceae (IPOHE); experiment: as above; settings: Ipomoea hederacea, 312 h; pre-emergence, rate 1,000 g/ha, evaluated after 13 days (100=total damage to plant; 0=no damage); read-out: Percentage damage caused to weed species, IPOHE
Method in brief: as §1

Setaria faberi (SETFA) [5] = experiment: as above; settings: 312 h, pre-emergence, rate 1,000 g/ha, evaluated after 13 days (100=total damage to plant; 0=no damage), read-out: Percentage damage caused to weed species, SETFA
Method in brief: as §1

Solanum nigrum (SOLNI) [6] = experiment: as above; settings: 312 h, pre-emergence, rate 1,000 g/ha, evaluated after 13 days (100=total damage to plant; 0=no damage), read-out: Percentage damage caused to weed species, SOLNI
Method in brief: as §1

[7] = test system: Alopecurus myosuroides (ALOMY); experiment: Post-emergence biological efficacy, glasshouse pot test; settings: 312 h, Rate 1,000 g/ha, post-emergence spray, evaluated after 13 days (100=total damage to plant; 0=no damage to plant), read-out: Percentage damage caused to weed species, post-emergence, ALOMY
Method in brief: (§2)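 Scored 13 days after spraying on a 0 (no damage) to 100 (total damage) scale. Treatment was a post-emergence spray at 1000 or 250 g/ha, from acetone/water 50:50 plus 0.5% Tween 20, onto 8-day-old plants in soil pots. Growth at 24/16° C, 14 h photoperiod, 65% humidity, watered twice daily.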

[8] = test system: Amaranthus retoflexus (AMARE); experiment: as above; settings: Amaranthus retroflexus, 312 h; Rate 1,000 g/ha; post-emergence spray; evaluated after 13 days (100=total damage to plant; 0=no damage to plant); read-out: Percentage damage caused to weed species, post-emergence, AMARE
Method in brief: as §2

[9] = test system: Echinochloa crus-galli (ECHCG); experiment: as above; settings: 312 h, Rate 1,000 g/ha, post-emergence spray, evaluated after 13 days (100=total damage to plant; 0=no damage to plant), read-out: Percentage damage caused to weed species, post-emergence, ECHCG
Method in brief: as §2

[10] = test system: Ipomea hederaceae (IPOHE); experiment: as above; settings: Ipomoea hederacea, 312 h; Rate 1,000 g/ha; post-emergence spray; evaluated after 13 days (100=total damage to plant; 0=no damage to plant); read-out: Percentage damage caused to weed species, post-emergence, IPOHE
Method in brief: as §2

Setaria faberi (SETFA) [11] = experiment: as above; settings: 312 h, Rate 1,000 g/ha, post-emergence spray, evaluated after 13 days (100=total damage to plant; 0=no damage to plant), read-out: Percentage damage caused to weed species, post-emergence, SETFA
Method in brief: as §2

Solanum nigrum (SOLNI) [12] = experiment: as above; settings: 312 h, Rate 1,000 g/ha, post-emergence spray, evaluated after 13 days (100=total damage to plant; 0=no damage to plant), read-out: Percentage damage caused to weed species, post-emergence, SOLNI
Method in brief: as §2

| SMILES | pest or weed control at 1000 g/ha [1] [%] | pest or weed control at 1000 g/ha [2] [%] | pest or weed control at 1000 g/ha [3] [%] | pest or weed control at 1000 g/ha [4] [%] | pest or weed control at 1000 g/ha (Setaria faberi (SETFA) [5]) [%] | pest or weed control at 1000 g/ha (Solanum nigrum (SOLNI) [6]) [%] | pest or weed control at 1000 g/ha [7] [%] | pest or weed control at 1000 g/ha [8] [%] | pest or weed control at 1000 g/ha [9] [%] | pest or weed control at 1000 g/ha [10] [%] | pest or weed control at 1000 g/ha (Setaria faberi (SETFA) [11]) [%] | pest or weed control at 1000 g/ha (Solanum nigrum (SOLNI) [12]) [%] |
| --- | --- | --- | --- | --- | --- | --- | --- | --- | --- | --- | --- | --- |
| COC(=O)c1nc(C2CC2)nc(N(Cc2ccc(C)o2)C(C)C)c1Cl [Compound 146-135, 5-Chloro-2-cyclopropyl-6-methoxycarbonyl-4-[N-(5-methylfuran-2-ylmethyl)-N-prop-2-yl-amino]-pyrimidine] | 40 | 100 | 10 | 100 | 40 | 100 | 40 | 100 | 80 | 100 | 90 | 90 |
| COC(=O)c1nc(C2CC2)nc(N(C/C=C/c2ccccc2OC)C(C)C)c1Cl [Compound 146-255, 5-Chloro-2-cyclopropyl-4-{N-isopropyl-N-[3-(2-methoxyphenyl)-prop-2-enyl]-amino}-6-methoxycarbonyl-pyrimidine] | 10 | 100 | 10 | 70 | 20 | 10 | 20 | 100 | 30 | 100 | 80 | 80 |
| CCCCN(Cc1ccccc1)c1nc(C2CC2)nc(C(=O)OC)c1Cl [Compound 147-60, 4-(N-But-1-yl-N-phenylmethyl-amino)-5-chloro-2-cyclopropyl-6-methoxycarbonyl-pyrimidine] | 40 | 100 | 20 | 30 | 0 | 80 | 10 | 70 | 10 | 80 | 40 | 80 |
| CCC(C)N(Cc1ccccc1)c1nc(C2CC2)nc(C(=O)OC)c1Cl (stereo not drawn) [Compound 148-60, 4-(N-But-2-yl-N-phenylmethyl-amino)-5-chloro-2-cyclopropyl-6-methoxycarbonyl-pyrimidine] | 0 | 80 | 0 | 30 | 0 | 80 | 10 | 100 | 0 | 90 | 40 | 80 |
| COC(=O)c1nc(C2CC2)nc(N(Cc2ccccc2)C[Si](C)(C)C)c1Cl [Compound 150-60, 5-Chloro-2-cyclopropyl-6-methoxycarbonyl-4-(N-phenylmethyl-N-trimethylsilylmethyl-amino)pyrimidine] | 20 | 80 | 40 | 90 | 20 | 70 | 40 | 100 | 60 | 90 | 70 | 90 |
| C=CCN(Cc1ccccc1)c1nc(C2CC2)nc(C(=O)OC)c1Cl [Compound 151-60, 5-Chloro-2-cyclopropyl-6-methoxycarbonyl-4-(N-phenylmethyl-N-prop-2-en-1-yl-amino)-pyrimidine] | 20 | 40 | 20 | 60 | 10 | 10 | 20 | 100 | 40 | 70 | 80 | 80 |
| C=CCN(Cc1ccccc1F)c1nc(C2CC2)nc(C(=O)OC)c1Cl [Compound 151-64, 5-Chloro-2-cyclo-propyl-4-[N(2-fluorophenyl)methyl-N-prop-2-enyl-amino]-6-methoxy-carbonylpyrimidine] | 0 | 30 | 0 | 30 | 0 | 0 | 10 | 100 | 40 | 100 | 90 | 90 |
| C=CCN(Cc1ccc(F)cc1)c1nc(C2CC2)nc(C(=O)OC)c1Cl [Compound 151-66, 5-Chloro-2-cyclopropyl-4-[N-(4-fluorophenylmethyl)-N-prop-2-en-1-yl-amino]-6-methoxy-carbonylpyrimidine] | 0 | 40 | 0 | 50 | 0 | 0 | 20 | 80 | 30 | 70 | 50 | 80 |
| C=CCN(Cc1cccc(OC)c1OC)c1nc(C2CC2)nc(C(=O)OC)c1Cl [Compound 151-109, 5-Chloro-2-cyclopropyl-4-[N-(2,3-dimethoxyphenyl-methyl)-N-prop-2-en-1-yl-amino]-6-methoxycarbonyl-pyrimidine] | 0 | 60 | 0 | 20 | 10 | 20 | 0 | 30 | 0 | 30 | 0 | 30 |
| C=CCN(Cc1cc(Cl)ccc1OC)c1nc(C2CC2)nc(C(=O)OC)c1Cl [Compound 151-117, 5-Chloro-4-[N-(5-chloro-2-methoxyphenylmeth-yl)-N-prop-2-en-1-yl-amino]-2-cyclopropyl-6-methoxycarbonyl-pyrimidine] | 10 | 40 | 0 | 30 | 10 | 30 | 0 | 30 | 0 | 60 | 20 | 30 |
